How the values were obtained:
[1] = test system: patients with schizophrenia; assay: Sertindole Cohort Prospective (SCoP) study: fatal or non-fatal suicide attempts, sertindole vs risperidone; format: in vivo, human; conditions: for Committed or attempted suicide (rate/100 PYE): WRT period plus 30 days; for Hazard Ratio SERT as compared to RISP, committing or attempting suicide: Cox proportional hazards model adjusting for age, gender, history of suicide attempt, duration of schizophrenia; for Hazard ratio SERT/RISP, committed or attempted suicide: log-rank test, WRT plus 30 days
Text: (§1) The Sertindole Cohort Prospective (SCoP) study was designed as a multi-national, multi-centre, prospective, randomized, open-label, two parallel-group, active-controlled study in human subjects with schizophrenia. The objective of the study is to compare the safety of sertindole with the safety of another standard antipsychotic drug (in this case risperidone) under normal conditions of use. In addition, the study collects information on fatal or non-fatal suicide attempts. The study was initiated in 2002 and is still ongoing.
(§2) To ensure that the study population is representative of patients with schizophrenia, only a limited number of selection criteria are imposed. In particular, patients are required to fulfil the criteria specified in the SmPCs (Core Summary of Product Characteristics) for both sertindole and risperidone; they are not to have received either sertindole or risperidone as their treatment immediately before entering the study, and they require treatment with but a single anti-schizophrenia drug product.
as §1, with “is” for “was designed as”, “multinational,” for “multi-national,”, “patients” for “human subjects”
The data in the study are reported for different periods. The Only-Randomized-Treatment-Period (ORT) covers the time the patient is receiving antipsychotic monotherapy with the randomized trial medication. However, patients can also be treated in combination with another antipsychotic if this is clinically necessary. When the patient receives an additional antipsychotic, the patient is censored and the data are reported for the Whole-Randomized-Treatment period (WRT). The primary period for reporting is the so-called Whole-Randomized-Treatment+30 period (WRT+30), which covers the time during which the patient receives randomized treatment plus 30 days after treatment discontinuation. Finally, the period during which the patient is followed even after the treatment has been stopped is called the Whole-Follow-up-Period (WFP).
as §2, with “fulfill” for “fulfil”, “SmPCs” for “SmPCs (Core Summary of Product Characteristics)”, “antipsychotic drug.” for “anti-schizophrenia drug product.”
Throughout the treatment period patients are dosed according to the treatment recommendations in their respective SmPCs. […]
Regarding attempted suicide, the analysis comprised only those events for which the investigators confirmed that the patients actually tried to commit suicide. Events such as intentional overdose and intentional self-injury were clarified by the investigators and were not included in the analysis unless the investigators confirmed that they were real suicide attempts. The included events were coded as ‘suicide attempt’ in the database.
The above definition of attempted suicide has the advantage of making it possible combine this event with completed suicide and to analyze the time until either event occurs. This can be done since all patients are randomised to start new treatment with either sertindole or risperidone.
All events occurring in the Whole Randomised Treatment (WRT) period plus 30 days were considered for analysis, up until the data cut-off. The WRT period is the period from start to stop of randomised treatment. The null hypothesis of equality of hazards between treatment groups was tested using the log-rank test. […]

[2] = test system: patient population of clinical trials of atypical antipsychotics; conditions: between sertindole, olanzapine and risperidone; cited from earlier work
[3] = test system: patients with schizophrenia; assay: Twelve-month open-label study of sertindole: time to sustained response; format: in vivo, human; conditions: 4-24 mg once daily for up to one year; 358 patients
Text: These findings are further corroborated by an exploratory analysis of clinical data obtained from a twelve-month open-label study ([…] et al., “Identification of Potential Predictors of Sertindole Response in Patients with Schizophrenia”, to be published). In line with the emerging consensus criteria for response to antipsychotic treatment in schizophrenia ([…] et al., Am J Psychiatry 162:441-449, March 2005), the objective of this exploratory analysis is to identify potential predictors of response to sertindole in patients with schizophrenia. The study assessed the safety and efficacy of sertindole doses (4-24 mg) administered once daily for up to one year in US patients with schizophrenia.

[4] = test system: serotonin 5-HT2 receptors; conditions: cited from earlier work
[5] = target: dopamine D2 receptors (Homo sapiens, UniProt P14416); conditions: cited from earlier work
Chain of dopamine D2 receptors (P14416 whole entry): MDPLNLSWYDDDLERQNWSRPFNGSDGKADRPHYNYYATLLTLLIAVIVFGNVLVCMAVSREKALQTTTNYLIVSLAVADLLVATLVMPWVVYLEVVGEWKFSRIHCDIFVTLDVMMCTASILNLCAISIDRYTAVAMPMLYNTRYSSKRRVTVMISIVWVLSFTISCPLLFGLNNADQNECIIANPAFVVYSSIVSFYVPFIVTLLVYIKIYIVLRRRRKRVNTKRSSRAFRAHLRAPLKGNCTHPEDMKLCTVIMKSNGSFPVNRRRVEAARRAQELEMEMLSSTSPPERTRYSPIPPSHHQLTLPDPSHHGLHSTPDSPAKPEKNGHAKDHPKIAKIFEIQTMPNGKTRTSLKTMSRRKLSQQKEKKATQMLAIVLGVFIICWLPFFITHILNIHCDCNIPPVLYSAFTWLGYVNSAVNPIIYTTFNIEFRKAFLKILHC

[6] = test system: α1-adrenergic receptors; conditions: cited from earlier work
[7] = test system: histaminergic receptors; conditions: cited from earlier work
[8] = test system: muscarinic receptors; conditions: cited from earlier work
[9] = test system: α2-adrenergic receptors; conditions: cited from earlier work
[10] = test system: A9 dopamine neurons (the nigrostriatal pathway); conditions: cited from earlier work
[11] = test system: A10 neurons (the mesolimbic and mesocortical pathways); conditions: cited from earlier work
[12] = compared with haloperidol, fluphenazine and chlorpromazine; cited from earlier work

Cc1nc2n(c(=O)c1CCN1CCC(c3noc4cc(F)ccc34)CC1)CCCC2 [risperidone]
Event rate in risperidone group relative to sertindole group (times higher) ([1]; Cox proportional hazards model, data cut-off 11.1 2007): approximately 1.7 times
Committed or attempted suicide (rate/100 PYE) ([1]; as of Nov. 1, 2006): 1.15 rate/100 PYE
Committed or attempted suicide (rate/100 PYE) ([1]; as of Nov. 1, 2007): 0.92 rate/100 PYE
Event rate in risperidone group relative to sertindole group (times higher) ([1]; data cut-off 11.1 2007, unadjusted): ~1.5 times
Event rate in risperidone group relative to sertindole group (times higher) ([1]; data up until 11 Jan. 2006): ~1.5 times
Short-term (450 days) hazard functions (mortality) [2]: no obvious difference

Cc1cc2c(s1)Nc1ccccc1N=C2N1CCN(C)CC1 [olanzapine]
Short-term (450 days) hazard functions (mortality) [2]: no obvious difference

O=C1NCCN1CCN1CCC(c2cn(-c3ccc(F)cc3)c3ccc(Cl)cc23)CC1 [sertindole]
Hazard Ratio SERT as compared to RISP, committing or attempting suicide ([1]; as of Nov. 1, 2007): approximately 0.6
Hazard Ratio SERT as compared to RISP, committing or attempting suicide ([1]; as of Nov. 1, 2007, listed as SERT): 0.614
Committed or attempted suicide (rate/100 PYE) ([1]; as of Nov. 1, 2006): 0.85 rate/100 PYE
Committed or attempted suicide (rate/100 PYE) ([1]; as of Nov. 1, 2007): 0.62 rate/100 PYE
Hazard ratio SERT/RISP, committed or attempted suicide ([1]; data cut-off 11.1 2007): approximately 0.7
Hazard ratio SERT/RISP, committed or attempted suicide ([1]; data cut-off 11.1 2007, listed as SERT): 0.69
Hazard ratio SERT/RISP, committed or attempted suicide ([1]; data up until 11 Jan. 2006): approximately 0.7
Hazard ratio SERT/RISP, committed or attempted suicide ([1]; data up until 11 Jan. 2006, listed as SERT): 0.72
Incidence of suicide attempts (both fatal and non-fatal) in comparison with risperidone ([1]; schizophrenic patients on maintenance dose sertindole therapy): reduced significantly
Patients achieving sustained response (CGI-S<=3 and CGI-I<=2, sustained at least 8 weeks) [3]: 125 patients
Affinity for serotonin 5-HT2 receptors [4]: high affinity
Affinity for dopamine D2 receptors [5]: high affinity
Affinity for α1-adrenergic receptors [6]: high affinity
Binding to histaminergic receptors [7]: limited binding
Binding to muscarinic receptors [8]: limited binding
Binding to α2-adrenergic receptors [9]: limited binding
Depolarization inactivation in A9 dopamine neurons [10]: does not induce depolarization inactivation
Activity in A10 neurons [11]: retains activity
Short-term (450 days) hazard functions (mortality) [2]: no obvious difference
Adverse effects [12]: fewer adverse effects

Reference: patent US20070281925A1, “USE OF SERTINDOLE FOR THE PREVENTIVE TREATMENT OF SUICIDAL BEHAVIOUR” (H. Lundbeck A/S, priority 2006, published 2007)
